According to ChEMBL document CHEMBL5212743, “Selectivity Literature for EUbOPEN Chemogenomics Library wave 3” (2023):
Each block holds one compound with its values, some of them ahead of it.

Columns and labels:
[1] = target: T1, Alpha-1A adrenergic receptor (Homo sapiens) (UniProt P35348); assay: Selectivity interaction (Receptor panel (Ricerca)) EUB0000216b ADRA1A; details: at 1 µM
T1 sequence (whole entry): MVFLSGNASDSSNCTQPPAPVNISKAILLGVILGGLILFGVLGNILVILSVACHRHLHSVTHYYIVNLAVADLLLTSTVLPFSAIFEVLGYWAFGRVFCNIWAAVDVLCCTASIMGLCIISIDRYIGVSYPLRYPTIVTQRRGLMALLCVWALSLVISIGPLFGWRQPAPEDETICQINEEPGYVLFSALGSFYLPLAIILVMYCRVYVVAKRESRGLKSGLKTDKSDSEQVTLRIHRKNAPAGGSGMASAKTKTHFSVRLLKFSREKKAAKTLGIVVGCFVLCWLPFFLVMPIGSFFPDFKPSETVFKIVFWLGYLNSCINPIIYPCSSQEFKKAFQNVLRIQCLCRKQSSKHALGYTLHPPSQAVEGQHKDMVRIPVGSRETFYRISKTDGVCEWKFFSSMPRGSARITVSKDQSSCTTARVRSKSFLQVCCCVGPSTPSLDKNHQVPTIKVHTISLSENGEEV

[2] = target: T2, N-lysine methyltransferase KMT5A (Homo sapiens, UniProt Q9NQR1); assay: Selectivity interaction (Methyltransferase panel (radioactive enzyme assay)) EUB0000216b SETD8
T2 sequence (Q9NQR1 whole entry): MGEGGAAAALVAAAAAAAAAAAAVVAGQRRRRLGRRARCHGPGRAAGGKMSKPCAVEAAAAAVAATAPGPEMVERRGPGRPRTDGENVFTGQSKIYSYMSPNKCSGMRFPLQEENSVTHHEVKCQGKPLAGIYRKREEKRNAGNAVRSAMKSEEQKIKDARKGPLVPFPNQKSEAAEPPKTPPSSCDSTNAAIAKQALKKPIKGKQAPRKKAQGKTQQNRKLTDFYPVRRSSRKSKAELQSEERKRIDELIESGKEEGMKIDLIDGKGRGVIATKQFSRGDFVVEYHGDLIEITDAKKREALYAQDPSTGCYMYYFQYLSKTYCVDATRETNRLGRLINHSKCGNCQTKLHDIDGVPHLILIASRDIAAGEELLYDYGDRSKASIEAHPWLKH

[3] = target: T3, Histone-lysine N-methyltransferase SETDB1 (Homo sapiens, UniProt Q15047); assay: Selectivity interaction (Methyltransferase panel (radioactive enzyme assay)) EUB0000216b SETDB1
[4] = target: T4, Histone-lysine N-methyltransferase EHMT1 (Homo sapiens, UniProt Q9H9B1); assay: Selectivity interaction (Methyltransferase panel (radioactive enzyme assay)) EUB0000216b EHMT1
T4 sequence (Q9H9B1 whole entry): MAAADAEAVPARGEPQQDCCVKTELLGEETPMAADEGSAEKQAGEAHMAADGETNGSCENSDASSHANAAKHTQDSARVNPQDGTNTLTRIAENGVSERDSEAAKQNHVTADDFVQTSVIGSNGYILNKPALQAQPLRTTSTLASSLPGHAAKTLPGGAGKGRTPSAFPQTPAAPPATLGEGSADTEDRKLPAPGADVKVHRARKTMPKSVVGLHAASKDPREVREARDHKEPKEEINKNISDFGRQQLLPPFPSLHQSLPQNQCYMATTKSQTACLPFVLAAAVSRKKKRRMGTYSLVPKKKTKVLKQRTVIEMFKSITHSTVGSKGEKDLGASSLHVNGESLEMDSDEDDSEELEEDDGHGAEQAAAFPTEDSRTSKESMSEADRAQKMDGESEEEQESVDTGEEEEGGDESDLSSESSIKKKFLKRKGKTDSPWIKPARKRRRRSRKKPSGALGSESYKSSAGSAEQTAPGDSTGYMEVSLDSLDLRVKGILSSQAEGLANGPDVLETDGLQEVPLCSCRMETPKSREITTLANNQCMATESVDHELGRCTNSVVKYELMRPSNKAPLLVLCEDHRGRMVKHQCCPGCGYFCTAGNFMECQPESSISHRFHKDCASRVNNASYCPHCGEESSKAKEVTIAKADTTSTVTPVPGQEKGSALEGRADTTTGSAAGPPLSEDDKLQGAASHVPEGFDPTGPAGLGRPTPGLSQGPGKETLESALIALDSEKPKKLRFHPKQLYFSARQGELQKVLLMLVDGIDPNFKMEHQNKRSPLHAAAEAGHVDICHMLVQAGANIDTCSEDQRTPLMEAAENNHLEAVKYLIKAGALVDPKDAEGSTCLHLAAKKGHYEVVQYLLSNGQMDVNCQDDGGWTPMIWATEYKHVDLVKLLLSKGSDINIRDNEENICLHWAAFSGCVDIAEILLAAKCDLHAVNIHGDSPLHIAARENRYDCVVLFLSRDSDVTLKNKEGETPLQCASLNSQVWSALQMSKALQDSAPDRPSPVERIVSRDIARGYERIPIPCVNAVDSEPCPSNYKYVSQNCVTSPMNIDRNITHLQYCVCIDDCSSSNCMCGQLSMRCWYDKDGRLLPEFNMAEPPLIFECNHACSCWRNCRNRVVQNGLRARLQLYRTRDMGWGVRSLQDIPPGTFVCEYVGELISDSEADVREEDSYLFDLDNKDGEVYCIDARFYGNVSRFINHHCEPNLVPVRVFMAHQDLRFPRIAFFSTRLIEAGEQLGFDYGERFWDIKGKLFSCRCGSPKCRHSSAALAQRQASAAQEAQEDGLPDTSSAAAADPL

[5] = target: T5, Histone-lysine N-methyltransferase KMT5C (Homo sapiens, UniProt Q86Y97); assay: Selectivity interaction (Methyltransferase panel (radioactive enzyme assay)) EUB0000216b SUV420H2
T5 sequence (Q86Y97 whole entry): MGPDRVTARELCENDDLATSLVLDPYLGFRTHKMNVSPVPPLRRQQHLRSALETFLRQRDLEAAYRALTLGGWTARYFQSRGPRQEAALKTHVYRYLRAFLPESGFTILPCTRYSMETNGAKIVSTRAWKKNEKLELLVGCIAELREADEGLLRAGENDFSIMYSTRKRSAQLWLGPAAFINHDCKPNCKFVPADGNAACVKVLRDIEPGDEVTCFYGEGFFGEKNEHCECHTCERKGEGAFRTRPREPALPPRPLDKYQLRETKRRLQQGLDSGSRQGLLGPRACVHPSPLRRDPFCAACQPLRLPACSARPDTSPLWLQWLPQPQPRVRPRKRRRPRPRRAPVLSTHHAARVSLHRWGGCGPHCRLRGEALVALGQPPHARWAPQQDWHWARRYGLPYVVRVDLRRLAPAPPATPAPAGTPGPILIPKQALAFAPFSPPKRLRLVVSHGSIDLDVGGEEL

[6] = target: T6, Histone-lysine N-methyltransferase 2A (Homo sapiens, UniProt Q03164); assay: Selectivity interaction (Methyltransferase panel (radioactive enzyme assay)) EUB0000216b MLL
[7] = target: T7, Histone-lysine N-methyltransferase SUV39H2 (Homo sapiens, UniProt Q9H5I1); assay: Selectivity interaction (Methyltransferase panel (radioactive enzyme assay)) EUB0000216b SUV39H2
T7 sequence (Q9H5I1 whole entry): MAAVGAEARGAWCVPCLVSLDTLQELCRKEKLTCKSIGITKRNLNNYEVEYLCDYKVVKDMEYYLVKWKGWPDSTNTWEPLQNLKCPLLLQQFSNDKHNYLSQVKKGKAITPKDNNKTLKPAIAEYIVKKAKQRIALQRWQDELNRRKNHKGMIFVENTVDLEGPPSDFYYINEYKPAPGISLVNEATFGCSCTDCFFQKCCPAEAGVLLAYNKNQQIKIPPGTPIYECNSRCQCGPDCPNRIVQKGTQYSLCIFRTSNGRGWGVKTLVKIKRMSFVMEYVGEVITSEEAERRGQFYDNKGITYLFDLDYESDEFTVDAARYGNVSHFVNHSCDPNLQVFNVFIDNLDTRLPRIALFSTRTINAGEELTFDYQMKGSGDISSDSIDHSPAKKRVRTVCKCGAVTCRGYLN

[8] = target: T8, Histone-lysine N-methyltransferase SETD7 (Homo sapiens, UniProt Q8WTS6); assay: Selectivity interaction (Methyltransferase panel (radioactive enzyme assay)) EUB0000216b SETD7
T8 sequence (Q8WTS6 whole entry): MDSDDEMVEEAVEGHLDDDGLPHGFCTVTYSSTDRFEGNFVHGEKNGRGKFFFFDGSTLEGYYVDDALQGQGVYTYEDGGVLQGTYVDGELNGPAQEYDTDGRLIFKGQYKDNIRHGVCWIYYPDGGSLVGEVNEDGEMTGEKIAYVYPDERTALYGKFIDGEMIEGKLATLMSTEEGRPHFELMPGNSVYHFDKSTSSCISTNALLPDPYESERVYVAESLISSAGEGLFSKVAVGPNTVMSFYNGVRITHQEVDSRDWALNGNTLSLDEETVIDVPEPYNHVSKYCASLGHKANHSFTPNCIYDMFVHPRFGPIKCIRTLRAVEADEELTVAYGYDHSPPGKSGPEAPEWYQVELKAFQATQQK

[9] = target: T9, Protein arginine N-methyltransferase 5 (Homo sapiens, UniProt O14744); assay: Selectivity interaction (Methyltransferase panel (radioactive enzyme assay)) EUB0000216b PRMT5
T9 sequence (O14744 whole entry): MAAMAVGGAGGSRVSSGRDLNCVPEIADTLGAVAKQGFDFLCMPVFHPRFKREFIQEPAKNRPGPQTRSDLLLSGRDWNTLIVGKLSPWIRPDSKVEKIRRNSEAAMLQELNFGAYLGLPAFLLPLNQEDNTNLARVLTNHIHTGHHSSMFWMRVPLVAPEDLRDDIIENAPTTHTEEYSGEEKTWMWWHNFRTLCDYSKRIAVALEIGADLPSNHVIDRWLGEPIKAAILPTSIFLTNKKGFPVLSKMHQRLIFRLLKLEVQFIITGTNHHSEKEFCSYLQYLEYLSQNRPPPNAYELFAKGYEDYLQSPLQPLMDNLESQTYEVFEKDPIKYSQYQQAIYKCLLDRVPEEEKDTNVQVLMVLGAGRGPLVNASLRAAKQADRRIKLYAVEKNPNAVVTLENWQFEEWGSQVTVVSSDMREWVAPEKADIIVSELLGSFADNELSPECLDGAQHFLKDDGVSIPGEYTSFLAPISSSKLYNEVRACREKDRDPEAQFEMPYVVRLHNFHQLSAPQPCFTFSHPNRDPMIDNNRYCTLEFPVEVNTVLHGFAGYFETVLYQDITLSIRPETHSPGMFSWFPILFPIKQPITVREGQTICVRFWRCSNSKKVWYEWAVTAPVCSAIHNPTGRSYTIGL

[10] = target: T10, Histone-lysine N-methyltransferase EZH2 (Homo sapiens, UniProt Q15910); assay: Selectivity interaction (Methyltransferase panel (radioactive enzyme assay)) EUB0000216b EZH2
T10 sequence (Q15910 whole entry): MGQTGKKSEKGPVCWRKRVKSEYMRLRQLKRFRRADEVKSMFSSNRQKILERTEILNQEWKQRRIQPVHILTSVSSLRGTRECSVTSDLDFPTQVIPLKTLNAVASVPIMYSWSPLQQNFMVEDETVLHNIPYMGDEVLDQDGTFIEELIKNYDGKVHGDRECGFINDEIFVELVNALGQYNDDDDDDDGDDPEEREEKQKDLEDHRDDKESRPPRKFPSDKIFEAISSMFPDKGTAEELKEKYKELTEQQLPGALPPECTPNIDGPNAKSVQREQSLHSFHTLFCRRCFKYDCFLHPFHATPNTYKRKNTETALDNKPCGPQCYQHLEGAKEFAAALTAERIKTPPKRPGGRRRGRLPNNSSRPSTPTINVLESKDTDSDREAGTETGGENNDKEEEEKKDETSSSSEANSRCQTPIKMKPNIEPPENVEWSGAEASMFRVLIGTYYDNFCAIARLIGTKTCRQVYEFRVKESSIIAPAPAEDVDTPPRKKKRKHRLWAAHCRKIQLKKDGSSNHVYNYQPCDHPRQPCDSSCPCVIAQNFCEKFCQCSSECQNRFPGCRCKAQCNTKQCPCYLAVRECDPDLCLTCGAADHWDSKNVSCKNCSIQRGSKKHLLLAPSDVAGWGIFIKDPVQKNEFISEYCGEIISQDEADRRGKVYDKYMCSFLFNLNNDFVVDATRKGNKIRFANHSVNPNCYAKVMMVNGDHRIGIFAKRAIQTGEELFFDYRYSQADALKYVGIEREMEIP

[11] = target: T11, Histone-lysine N-methyltransferase EHMT2 (Homo sapiens, UniProt Q96KQ7); assay: Selectivity interaction (Methyltransferase panel (radioactive enzyme assay)) EUB0000216b EHMT2
[12] = target: T12, Protein arginine N-methyltransferase 3 (Homo sapiens, UniProt O60678); assay: Selectivity interaction (Methyltransferase panel (radioactive enzyme assay)) EUB0000216b PRMT3
T12 sequence (O60678 whole entry): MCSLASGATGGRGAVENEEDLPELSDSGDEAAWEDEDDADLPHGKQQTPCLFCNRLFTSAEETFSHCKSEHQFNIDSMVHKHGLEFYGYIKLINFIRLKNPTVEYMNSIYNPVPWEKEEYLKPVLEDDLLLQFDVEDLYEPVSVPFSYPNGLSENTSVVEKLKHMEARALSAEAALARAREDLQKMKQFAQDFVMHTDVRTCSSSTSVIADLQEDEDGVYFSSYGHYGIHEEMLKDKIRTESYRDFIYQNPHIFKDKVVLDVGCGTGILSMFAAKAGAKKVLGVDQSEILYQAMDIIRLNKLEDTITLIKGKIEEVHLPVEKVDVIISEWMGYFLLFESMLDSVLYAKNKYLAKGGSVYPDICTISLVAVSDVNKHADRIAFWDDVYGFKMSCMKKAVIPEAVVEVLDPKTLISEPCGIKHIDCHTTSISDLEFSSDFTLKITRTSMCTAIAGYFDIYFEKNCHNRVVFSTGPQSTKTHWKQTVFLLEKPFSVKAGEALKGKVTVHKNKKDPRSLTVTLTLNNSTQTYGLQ

[13] = target: Protein N-lysine methyltransferase METTL21A (Homo sapiens) (UniProt Q8WXB1); assay: Selectivity interaction (Methyltransferase panel) EUB0000197b METTL21A
[14] = target: Mitogen-activated protein kinase kinase kinase 12 (Homo sapiens) (UniProt Q12852); assay: Selectivity interaction (Enzyme panel (kinases, GPCRs, ion channels, transporters)) EUB0000197b DLK1; details: at 10 µM
[15] = target: T13, 5-hydroxytryptamine receptor 2B (Homo sapiens, UniProt P41595); assay: (§1) Selectivity interaction (Enzyme panel (kinases, GPCRs, ion channels, transporters)) EUB0000197b HTR2B; details: at 10 µM
T13 sequence (P41595 whole entry): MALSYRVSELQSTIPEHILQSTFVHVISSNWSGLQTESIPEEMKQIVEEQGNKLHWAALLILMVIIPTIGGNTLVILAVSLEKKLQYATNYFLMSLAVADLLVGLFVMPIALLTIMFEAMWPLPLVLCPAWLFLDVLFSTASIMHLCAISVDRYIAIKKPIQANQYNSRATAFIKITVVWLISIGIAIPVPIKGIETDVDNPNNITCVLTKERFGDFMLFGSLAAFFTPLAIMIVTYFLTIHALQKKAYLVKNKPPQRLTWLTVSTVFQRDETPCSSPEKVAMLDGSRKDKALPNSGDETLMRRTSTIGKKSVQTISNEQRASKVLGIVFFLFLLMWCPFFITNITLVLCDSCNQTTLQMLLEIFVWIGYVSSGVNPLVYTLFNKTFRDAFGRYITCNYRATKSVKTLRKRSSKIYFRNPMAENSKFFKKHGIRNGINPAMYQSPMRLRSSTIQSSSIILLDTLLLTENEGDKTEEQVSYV

[16] = target: Ribosomal protein S6 kinase alpha-4 (Homo sapiens) (UniProt O75676); assay: Selectivity interaction (Enzyme panel (kinases, GPCRs, ion channels, transporters)) EUB0000197b RPS6KA4; details: at 10 µM
[17] = target: cAMP-dependent protein kinase catalytic subunit PRKX (Homo sapiens) (UniProt P51817); assay: Selectivity interaction (Enzyme panel (kinases, GPCRs, ion channels, transporters)) EUB0000197b PRKX; details: at 10 µM
[18] = target: T13, 5-hydroxytryptamine receptor 2B; assay: as §1
[19] = target: cGMP-dependent protein kinase 2 (Homo sapiens) (UniProt Q13237); assay: Selectivity interaction (Enzyme panel (kinases, GPCRs, ion channels, transporters)) EUB0000197b PRKG2; details: at 10 µM
[20] = target: Serine/threonine-protein kinase BRSK1 (Homo sapiens) (UniProt Q8TDC3); assay: Selectivity interaction (Enzyme panel (kinases, GPCRs, ion channels, transporters)) EUB0000197b BRSK1; details: at 10 µM
Activin receptor type-1 = Activin receptor type-1 (Homo sapiens, UniProt Q04771); assay: Selectivity interaction (KinomeScan (DiscoverX, competition-binding assay)) EUB0000207b ACVR1
[21] = target: T11, Histone-lysine N-methyltransferase EHMT2; assay: Selectivity interaction (Methyltransferase panel) EUB0000196bCl EHMT2
[22] = target: Protein arginine N-methyltransferase 1 (Homo sapiens, UniProt Q99873); assay: Selectivity interaction (Methyltransferase panel) EUB0000196bCl PRMT1
[23] = target: T8, Histone-lysine N-methyltransferase SETD7; assay: Selectivity interaction (ITC) EUB0000196bCl SETD7
[24] = target: T14, Histone-lysine N-methyltransferase EZH1 (Homo sapiens, UniProt Q92800); assay: Selectivity interaction (Methyltransferase panel) EUB0000196bCl EZH1
T14 sequence (Q92800 whole entry): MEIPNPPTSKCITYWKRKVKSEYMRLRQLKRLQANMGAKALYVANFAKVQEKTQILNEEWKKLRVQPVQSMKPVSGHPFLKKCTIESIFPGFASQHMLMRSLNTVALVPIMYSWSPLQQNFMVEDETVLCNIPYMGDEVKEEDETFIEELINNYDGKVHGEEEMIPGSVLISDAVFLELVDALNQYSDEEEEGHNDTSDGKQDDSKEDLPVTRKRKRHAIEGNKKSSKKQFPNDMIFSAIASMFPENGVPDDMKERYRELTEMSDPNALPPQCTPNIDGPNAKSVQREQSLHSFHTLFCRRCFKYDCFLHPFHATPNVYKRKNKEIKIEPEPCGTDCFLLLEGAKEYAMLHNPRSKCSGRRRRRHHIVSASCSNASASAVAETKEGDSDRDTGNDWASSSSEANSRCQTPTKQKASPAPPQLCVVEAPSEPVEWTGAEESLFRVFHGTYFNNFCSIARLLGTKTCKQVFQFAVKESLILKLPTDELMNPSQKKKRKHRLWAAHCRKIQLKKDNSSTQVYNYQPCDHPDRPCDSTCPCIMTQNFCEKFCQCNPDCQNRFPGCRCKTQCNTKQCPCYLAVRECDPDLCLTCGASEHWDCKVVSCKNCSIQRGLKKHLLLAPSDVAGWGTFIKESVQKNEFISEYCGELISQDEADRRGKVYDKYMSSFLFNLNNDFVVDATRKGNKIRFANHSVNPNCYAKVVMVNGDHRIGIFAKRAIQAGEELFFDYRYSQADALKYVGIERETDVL

[25] = target: Histone-lysine N-methyltransferase SETD2 (Homo sapiens, UniProt Q9BYW2); assay: Selectivity interaction (Methyltransferase panel) EUB0000196bCl SETD2
[26] = target: T5, Histone-lysine N-methyltransferase KMT5C; assay: Selectivity interaction (Methyltransferase panel) EUB0000196bCl SUV420H2
[27] = target: N-lysine methyltransferase SMYD2 (Homo sapiens, UniProt Q9NRG4); assay: Selectivity interaction (Methyltransferase panel) EUB0000196bCl SMYD2
[28] = target: T10, Histone-lysine N-methyltransferase EZH2; assay: Selectivity interaction (Methyltransferase panel) EUB0000196bCl EZH2
[29] = target: T6, Histone-lysine N-methyltransferase 2A; assay: Selectivity interaction (Methyltransferase panel) EUB0000196bCl MLL
[30] = target: Histone-lysine N-methyltransferase KMT5B (Homo sapiens, UniProt Q4FZB7); assay: Selectivity interaction (Methyltransferase panel) EUB0000196bCl SUV420H1
[31] = target: T9, Protein arginine N-methyltransferase 5; assay: Selectivity interaction (Methyltransferase panel) EUB0000196bCl PRMT5
[32] = target: T7, Histone-lysine N-methyltransferase SUV39H2; assay: Selectivity interaction (Methyltransferase panel) EUB0000196bCl SUV39H2
[33] = target: T12, Protein arginine N-methyltransferase 3; assay: Selectivity interaction (Methyltransferase panel) EUB0000196bCl PRMT3
[34] = target: Histone-lysine N-methyltransferase NSD2 (Homo sapiens, UniProt O96028); assay: Selectivity interaction (Methyltransferase panel) EUB0000196bCl NSD2
[35] = target: Bombesin receptor subtype-3 (Homo sapiens, UniProt P32247); assay: Selectivity interaction (Enzyme panel (ion channels, GPCRs, other targets)) EUB0000196bCl BRS3
[36] = target: Protein arginine N-methyltransferase 8 (Homo sapiens, UniProt Q9NR22); assay: Selectivity interaction (Methyltransferase panel) EUB0000196bCl PRMT8
Sequence of Protein arginine N-methyltransferase 8 (Q9NR22 whole entry): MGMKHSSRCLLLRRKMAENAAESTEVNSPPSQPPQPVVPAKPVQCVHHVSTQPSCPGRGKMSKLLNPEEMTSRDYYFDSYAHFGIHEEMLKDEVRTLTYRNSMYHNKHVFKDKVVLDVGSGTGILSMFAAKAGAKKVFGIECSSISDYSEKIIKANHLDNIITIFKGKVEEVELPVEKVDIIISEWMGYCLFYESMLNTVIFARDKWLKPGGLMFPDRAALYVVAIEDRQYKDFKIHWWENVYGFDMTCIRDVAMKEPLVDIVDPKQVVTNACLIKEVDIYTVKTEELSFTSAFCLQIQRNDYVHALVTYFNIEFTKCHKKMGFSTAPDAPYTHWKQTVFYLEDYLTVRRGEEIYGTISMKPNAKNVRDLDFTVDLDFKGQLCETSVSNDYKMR

[37] = target: DNA (cytosine-5)-methyltransferase 1 (Homo sapiens, UniProt P26358); assay: Selectivity interaction (Methyltransferase panel) EUB0000196bCl DNMT1
[38] = target: Kappa-type opioid receptor (Homo sapiens, UniProt P41145); assay: Selectivity interaction (Enzyme panel (ion channels, GPCRs, other targets)) EUB0000196bCl OPRK1
[39] = target: T2, N-lysine methyltransferase KMT5A; assay: Selectivity interaction (Methyltransferase panel) EUB0000196bCl SETD8
[40] = target: T4, Histone-lysine N-methyltransferase EHMT1; assay: Selectivity interaction (Methyltransferase panel) EUB0000196bCl EHMT1
Adenosine receptor A2b = Adenosine receptor A2b (Homo sapiens, UniProt P29275); assay: Selectivity interaction (Enzyme panel (ion channels, GPCRs, other targets)) EUB0000196bCl ADORA2B
[41] = target: Motilin receptor (Homo sapiens) (UniProt O43193); assay: Selectivity interaction (Enzyme panel (ion channels, GPCRs, other targets)) EUB0000196bCl MLN
[42] = target: Histone-lysine N-methyltransferase, H3 lysine-79 specific (Homo sapiens, UniProt Q8TEK3); assay: Selectivity interaction (Methyltransferase panel) EUB0000196bCl DOT1L
[43] = target: T3, Histone-lysine N-methyltransferase SETDB1; assay: Selectivity interaction (Methyltransferase panel) EUB0000196bCl SETDB1

% of inhibition [1]: 22%
IC50 [2]: > 100 µM
IC50 [3]: > 100 µM
IC50 [4]: > 100 µM
IC50 [5]: > 100 µM
IC50 [6]: > 100 µM
IC50 [7]: > 100 µM
IC50 [8]: > 100 µM
IC50 [9]: > 100 µM
IC50 [10]: > 100 µM
IC50 [11]: > 100 µM
IC50 [12]: > 100 µM
SMILES: CC(C)N(CCCNC(=O)Nc1ccc(C(C)(C)C)cc1)C[C@H]1O[C@@H](n2cc(Br)c3c(N)ncnc32)[C@H](O)[C@@H]1O

% of control [13]: 60%
% of control [14]: 60%
% of control [15]: 69%
% of control [16]: 55%
% of control [17]: 61%
Ki [18]: > 15 µM
% of control [19]: 58%
% of control [20]: 56%
SMILES: O=C(NCC(=O)N1CCCC1)Nc1ccc2cnccc2c1

Kd (Activin receptor type-1): 0.98 µM
SMILES: COc1cc(Nc2ccnc3ccc(Br)cc23)cc(OC)c1OC

EC50 [21]: > 10 µM
EC50 [22]: > 10 µM
Kd [23]: 0.018 µM
EC50 [24]: > 10 µM
EC50 [25]: > 10 µM
EC50 [26]: > 10 µM
EC50 [27]: > 10 µM
EC50 [28]: > 10 µM
EC50 [29]: > 10 µM
EC50 [30]: > 10 µM
EC50 [31]: > 10 µM
EC50 [32]: > 10 µM
EC50 [33]: > 10 µM
EC50 [34]: > 10 µM
Ki [35]: 8.1 µM
EC50 [36]: > 10 µM
EC50 [37]: > 10 µM
Ki [38]: 3.8 µM
EC50 [39]: > 10 µM
EC50 [40]: > 10 µM
Ki (Adenosine receptor A2b): 1.3 µM
Ki [41]: 7.2 µM
EC50 [42]: > 10 µM
EC50 [43]: > 10 µM
SMILES: O=C([C@@H](Cc1cccc(C(F)(F)F)c1)NS(=O)(=O)c1cc(F)c2c(c1)CCNC2)N1CCCC1
